Patent US4328214A, “Cyclopeptides and pharmaceutical preparations thereof and also processes for their manufacture” (Ciba-Geigy Corporation, priority 1979, dated 1982)

Test system: insulin and glucagon release
Assay: determination of insulin and glucagon release using the isolated perfused pancreas of a rat
Settings: multiple of the reference's inhibitory effect

For “[D-Trp^8 ; β-(1-naphthyl)-Gaba^12 ]-cyclosomatostatin(5-12)-octapeptide [formula ID diastereoisomeric mixture]”, the “inhibitory effect relative to [D-Trp^8 ; Gaba^12 ]-cyclosomatostatin(5-12)-octapeptide (formula M, p=1)” value was “approximately 10 times”.
